The numbers were not newly measured in patent publication US20150164065A1, “ORGAN ARREST, PROTECTION, PRESERVATION AND RECOVERY” (priority 2002, published 2015), which cites them from elsewhere.

The target in one series is T1, NK(3) receptor (Homo sapiens, UniProt P29371).
T1 sequence (P29371 1-465): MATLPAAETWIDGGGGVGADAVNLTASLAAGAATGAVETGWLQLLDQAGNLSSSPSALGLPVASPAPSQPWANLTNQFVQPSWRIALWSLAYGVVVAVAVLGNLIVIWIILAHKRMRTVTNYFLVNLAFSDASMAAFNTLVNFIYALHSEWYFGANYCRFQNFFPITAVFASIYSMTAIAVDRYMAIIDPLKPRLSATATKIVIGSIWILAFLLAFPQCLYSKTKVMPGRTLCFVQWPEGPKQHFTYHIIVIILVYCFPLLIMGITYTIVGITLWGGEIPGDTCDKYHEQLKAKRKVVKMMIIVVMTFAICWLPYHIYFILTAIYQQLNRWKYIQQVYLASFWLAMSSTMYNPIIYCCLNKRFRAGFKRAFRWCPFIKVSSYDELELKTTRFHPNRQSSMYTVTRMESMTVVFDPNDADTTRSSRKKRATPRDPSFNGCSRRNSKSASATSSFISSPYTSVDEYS
The note with it: relative to NK(1) receptor.

Another series concerns the target T2, NK(2) receptor (Homo sapiens, UniProt P21452).
T2 sequence (P21452 1-398): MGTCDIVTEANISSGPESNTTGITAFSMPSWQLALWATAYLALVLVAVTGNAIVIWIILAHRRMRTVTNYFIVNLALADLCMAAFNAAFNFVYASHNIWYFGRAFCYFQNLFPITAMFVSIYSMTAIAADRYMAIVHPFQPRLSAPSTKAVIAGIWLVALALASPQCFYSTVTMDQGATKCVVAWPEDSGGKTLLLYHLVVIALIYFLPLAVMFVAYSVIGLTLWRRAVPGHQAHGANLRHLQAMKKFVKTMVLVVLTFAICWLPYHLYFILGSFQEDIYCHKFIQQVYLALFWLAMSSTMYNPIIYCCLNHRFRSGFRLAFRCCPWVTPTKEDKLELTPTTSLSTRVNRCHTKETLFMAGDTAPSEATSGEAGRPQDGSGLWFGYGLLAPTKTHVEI
The note with it: relative to NK(1) receptor.

The target in another series is human NK(1) receptor (Homo sapiens, UniProt P25103).

Each structure is given as a SMILES string.

Sequence of human NK(1) receptor (P25103 whole entry): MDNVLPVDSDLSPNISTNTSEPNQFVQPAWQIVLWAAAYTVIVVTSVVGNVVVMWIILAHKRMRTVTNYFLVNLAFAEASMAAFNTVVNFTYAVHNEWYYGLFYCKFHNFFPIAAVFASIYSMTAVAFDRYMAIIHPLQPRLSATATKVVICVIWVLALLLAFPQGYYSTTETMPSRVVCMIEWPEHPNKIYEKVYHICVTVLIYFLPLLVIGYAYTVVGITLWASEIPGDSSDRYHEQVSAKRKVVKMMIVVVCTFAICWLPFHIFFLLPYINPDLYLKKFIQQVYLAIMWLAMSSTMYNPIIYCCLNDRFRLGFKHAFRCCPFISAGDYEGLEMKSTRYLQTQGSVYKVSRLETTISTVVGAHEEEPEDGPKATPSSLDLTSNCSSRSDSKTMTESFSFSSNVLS

Regarding `Cc1cccc(C)c1NC(=O)C[C@H]1CCN(C(=O)c2cc(C(F)(F)F)cc(C(F)(F)F)c2)[C@@H](Cc2ccccc2)C1.O=C(O)C[C@H](O)C(=O)O` (relative stereo) [Example R116301, (2R-trans)-4-[1-[3,5-bis(trifluoromethyl)benzoyl]-2-(phenylmethyl)-4-piperidinyl]-N-(2,6-dimethylphenyl)-1-acetamide (S)-Hydroxybutanedioate], the “selectivity toward NK(3) receptor” value on NK(3) receptor is reported as “over 200 fold”. Further, at NK(2) receptor, the “selectivity toward NK(2) receptor” value was “over 200 fold”. Moreover, at human NK(1) receptor, the Ki (in general, a measure of affinity in units of concentration, obtained from inhibition or displacement) is 0.45 nM.
Take `CC1(C)CC(O)CC(C)(C)N1[O]` [tempol(R)]: the ischemia-induced cell swelling result in the series with isolated brain slices is on record as “reduction of cell swelling”.
For the compound `Cc1c(C)c2c(c(C)c1O)CC[C@](C)(C(=O)O)O2` [Trolox(R)], the ischemia-induced cell swelling result in the series on isolated brain slices is given as “reduction of cell swelling”.
Turning to `CNC(=S)NC` [dimethylthiourea], the ischemia-induced cell swelling entry with isolated brain slices is reported as “reduction of cell swelling”.
